Test results reported in patent US20100266191A1, “METHOD FOR QUANTIFYING AN UNDERLYING PROPERTY OF A MULTITUDE OF SAMPLES” (priority 2007, published 2010).

System: GFP-human Akt3 fusion protein
Experiment: Akt3/PKBγ Redistribution assay (inhibition of IGF-I-stimulated membrane translocation)
Format: cell-based
Conditions: dose response fit of the estimated process coordinate, two-parameter formula, FIG. 15; IGF-I as reference agonist; read-out: Wortmannin concentration causing 50% changes (a)
Method: The Akt3/PKBγ Redistribution® assay from BioImage (http://www.bioimage.com) monitors translocation of GFP-human Akt3 fusion protein from the cytoplasm to the plasma membrane. Insulin-like growth factor-I (IGF-I) is used as reference agonist, and compounds are assayed for their ability to inhibit IGF-I-stimulated membrane translocation of Akt3/PKBγ. In inhibited cells, fluorescence is quite evenly distributed in the cytoplasmic space. In activated cells, there are spots of high intensity on the membrane area. Exemplary images from negative and positive control samples are presented on FIG. 1. […] The measured profiles for a series of positive and negative control samples are presented on FIG. 10. […] The measured profiles aid us in deciding how many segments we create and where their borders are. […] On FIG. 12, mean intensities of the three segments are plotted as read out parameters from images of positive control samples (left) and negative control samples (right). […] It is a linear combination of original intensities determined from the condition given in Eq. 4. […]

## COC[C@H]1OC(=O)c2coc3c2[C@@]1(C)C1=C(C3=O)[C@@H]2CCC(=O)[C@@]2(C)C[C@H]1OC(C)=O [Wortmannin, wortmannin]
  IC50: 36.4 ± 3 nM
